In the OligoGym collection:
These antisense oligonucleotides have a phosphorothioate backbone; sugars and methylation of C are not fully specified.

Target: GNAI3
Settings: ASO
Also: test concentration or dose not given here.

Sequence | remaining target (mRNA or protein) (fraction of control)
AGCCAGAACAAGGTCATA | 0.88
AGGTCATAATCACTGAGG | 0.75
ATCTCCTTGGTATCTTTT | 0.33
ATCTTGCTTCGCTCCACT | 0.63
ATGCAGCACCTCAACTTC | 0.4
ATTGTTTACATTCATCCT | ≥ 1
CAATAAAGTCCACATTCC | ≥ 1
CAATCTTTAGCCGTCCCA | 0.49
CATCTTGCTGAGTTGGAA | 0.34
CATGAGACAGCAAAAGGT | 0.92
CCACCATCTCGCCATAAC | 0.77
CCATGCTTCTCAATAAAG | 0.58
CTCAACACTCCACACTGT | 0.9
CTTCTCAATAAAGTCCAC | 0.65
GACTCCTTCTTCAGCACT | 0.48
GAGTTGGAATGTAGTTAG | 0.56
GGTATCTTTTCTTCTGTT | 0.48
GTCTGACTTTAGCATCTC | 0.56
GTGTTTCTACAATGCCTG | 0.37
TAAAGAGTGCTAAGATTC | 0.72
TAAAGTTATTCTTCTCTT | 0.88
TAACGGACTCCTCTTTAT | 0.25
TAATTGCTGTCACTCCCT | 0.65
TATTGGAACCTGTGTATT | 0.54
TCAACTTCACATCTTCCA | 0.62
TCACTCTCGTCCGAAGAA | 0.41
TGGCACAGGTGAAGTGAG | 0.29
TGGTCTTCACTCTCGTCC | 0.21
TTAAGAAATCCAAGTGAT | ≥ 1
TTAAGGAAGAGAATGATT | ≥ 1

Target: CTNNB1
Settings: ASO

Sequence | remaining target (mRNA or protein) (fraction of control)
AAACTGTGTAGATGGGATCT | 0.57
AATCAGCTTGAGTAGCCATT | 0.31
ACCAAGCATTTTCACCAGGG | 0.4
ACCAGGGTGGTGGCCACCCA | 0.48
AGAAAATCCCTGTTCCCACT | 0.32
AGCAGACACCATCTGAGGAG | 0.3
AGCCCACCAGCTAAACGCAC | 0.4
AGCTTGAGTAGCCATTGTCC | 0.34
AGGCTAGGGTTTGCTAAATT | 0.47
AGGTCCCAGCGGTACAACGA | 0.21
AGGTGCATGATTTGCGGGAC | 0.62
AGTAGCCATTGTCCACGCTG | 0.37
CAAAACAAGGTTCCAAATAA | 0.56
CAAATCAGCTTGAGTAGCCA | 0.49
CATTGTCCACGCTGGATTTT | 0.72
CCCATAGGAAACTCAGCTTG | 0.29
CCCCTCGCTCTCCGCTCCCG | 0.07
CCTCTCAGCAACTCTACAGG | 0.24
CCTCTGATAACAATTCGGTT | 0.52
CGACCTGCGGTGGCGGCTCG | 0.36

Sequence | remaining target (mRNA or protein) (fraction of control)
CTAAAGGATGATTTACAGGT | 0.54
CTGGTCAGCTCAACTGAAAG | 0.41
CTGTCAGAGGAGCTGTGGCT | 0.64
CTTGAGTAGCCATTGTCCAC | ≥ 1
GCACGAACAAGCAACTGAAC | 0.37
GCCATTGTCCACGCTGGATT | ≥ 1
GTACGCACAAGAGCCTCTAT | 0.29
GTCCTGAGCAAGTTCACAGA | 0.37
GTTGTATGGTATACTTCAAA | 0.69
TAGAGTGATTATGAATTAAT | 0.7
TAGCAGTTTTGTCAGTTCAG | ≥ 1
TAGCCATTGTCCACGCTGGA | 0.23
TCAGCTTGAGTAGCCATTGT | 0.31
TCGCCACACCTTCATTCCTA | 0.37
TGAGTAGCCATTGTCCACGC | 0.35
TGTTTTCAATGGGAGAATAA | 0.63
TTATTGCAAGTGAGGTTAGA | 0.51
TTCTCTTGAAGCATCGTATC | 0.2
TTGCTGCCAGTGACTAACAG | 0.46
TTGTCCACGCTGGATTTTCA | 0.52
